Tested on: LacZ B3Z hybridoma
Assay: LacZ MHC Class I antigen presentation assay
Assay type: cell-based
Protocol: In one embodiment, particles prepared from these acid degradable epolymer backbones are designed to release their bioactive material payload into the cytoplasm of cells upon lysosomal destabilization. Higher loading capacity of the particles may also lead to greater antigen presentation of the encapsulated bioactive material. In the antigen presentation assay described by Sanderson, S.; Shastri, N. in Inter. Immun. 1994, 6, 369-376, the β-galactosidase activity of B3Z T cells is measured. Antigen presenting cells display the peptide having the sequence, […] (SEQ ID NO: 8), upon phagocytosis of ovalbumin. These cells are engineered to transcribe β-galactosidase when in the presence of antigen presenting cells displaying the […] peptide (SEQ ID NO: 8). β-galactosidase then liberates chlorophenol red from the chlorophenol red βgalactoside that is present in solution. Absorbance of chlorophenol red is measured by UV absorbance at 595 nm. Therefore this assay can be used as a measurement of the amount of bioactive material delivered into the cytoplasm of cells by the microgel particles of the invention by measuring the amount of liberated chlorophenol red by UV absorbance at 595 nm.
The LacZ MHC Class I antigen presentation assay, as described by the antigen Sanderson, S.; Shastri, N. in Inter. Immun. 1994, 6, 369-376, is performed with degradable polymer particles made according to Example 7 with the degradable polymers in Example 1 and 3 to test their ability to deliver proteins into APCs for Class I antigen presentation. This experiment uses the LacZ B3Z hybridoma, which is a CTL that recognizes the peptide sequence, […] (SEQ ID NO: 8), from ovalbumin, complexed with the MHC Class I molecule H-2 K^b. This hybridoma produces P-galactosidase after encountering APCs that present […] as a Class I antigen, thus allowing Class I antigen presentation to be quantified by measuring β-galactosidase activity.
A maximum absorbance of 0.25 is observed with the […] peptide (SEQ ID NO: 8), which results in 100% T-cell activation. At about 0.4 mg of particle/mL, degradable particles made as in Examples 1, should show an absorbance close to that of 0.25 at which 100% T-cell activation occurs.

SIINFEKL
T-cell activation (at maximum absorbance): 100%
maximum absorbance (chlorophenol red, 595 nm): 0.25

free ovalbumin: free ovalbumin protein, comparator
U.V. absorbance resulting from activation (1 mg/ml of free ovalbumin): 0.037
activation of CTLs by APCs (APCs incubated with the substance): not able to activate CTLs

Reference: patent US8137700B2, “Main chain acid-degradable polymers for the delivery of bioactive materials” (U.S. Department of Energy, priority 2006, dated 2012)
